From ChEMBL document CHEMBL1122767, “Synthesis, resolution, absolute stereochemistry, and enantioselectivity of 3',4'-dihydroxynomifensine” (J Med Chem, 1984)

Tests used:
[1] = Concentration that produces 50 % displacement of specific [3H]clonidine binding to Alpha adrenergic receptor in rat brain cortical membrane preparations.; type: cell membranes
[2] = molecular target: D(2) dopamine receptor (Rattus norvegicus, UniProt P61169); test: Concentration that produces 50 % displacement of specific [3H]spiroperidol binding to rat caudate membrane preparations.
Chain of D(2) dopamine receptor (P61169 whole entry): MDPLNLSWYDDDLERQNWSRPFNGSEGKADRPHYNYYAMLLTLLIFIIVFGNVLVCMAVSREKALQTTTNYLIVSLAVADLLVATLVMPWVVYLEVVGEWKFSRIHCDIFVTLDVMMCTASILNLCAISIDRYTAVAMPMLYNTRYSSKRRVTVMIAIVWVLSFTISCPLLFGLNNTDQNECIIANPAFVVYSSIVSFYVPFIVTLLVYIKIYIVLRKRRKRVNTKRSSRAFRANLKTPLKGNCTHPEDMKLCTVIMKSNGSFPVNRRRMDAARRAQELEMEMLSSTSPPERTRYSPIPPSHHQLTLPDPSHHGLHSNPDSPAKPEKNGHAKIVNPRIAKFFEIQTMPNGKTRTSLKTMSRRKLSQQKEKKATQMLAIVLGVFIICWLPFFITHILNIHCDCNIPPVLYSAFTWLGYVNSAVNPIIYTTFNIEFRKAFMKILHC

[3] = molecular target: T1, cyclic AMP phosphoprotein (Rattus norvegicus, UniProt Q712U5); test: Effective concentration that gives maximal stimulation of cyclic AMP production over the concentration range tested; b=Inactive; type: functional
T1 sequence (Q712U5 whole entry): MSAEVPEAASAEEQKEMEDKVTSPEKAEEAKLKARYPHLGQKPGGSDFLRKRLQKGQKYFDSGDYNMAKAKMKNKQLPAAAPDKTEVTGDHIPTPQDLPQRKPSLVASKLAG

Structure (SMILES)	IC50 [1] [µM]	IC50 [2] [µM]	EC50 [3]
CN1Cc2c(N)cccc2C(c2ccc(O)c(O)c2)C1 (stereo not drawn)	1.39	92	
NCCc1ccc(O)c(O)c1 [DOPAMINE]	0.061		
CN1Cc2c(N)cccc2[C@H](c2ccc(O)c(O)c2)C1	0.6	85.8	
CN1Cc2c(N)cccc2[C@@H](c2ccc(O)c(O)c2)C1	27.7	99.1	Not Active
